Assay results from article PMC8605905 (Oxidative Medicine and Cellular Longevity, 2021).
“Also recorded” adds a separate entry of the source.

Key:
Type in all cases: cell-based, Human
[1] = system: Aβ-GFP SH-SY5Y cells; assay: Western blot in Aβ-GFP SH-SY5Y cells; conditions: inhibitor 10 μM on day 6, LM-021 5 μM
Description: (§1) To monitor the cAMP-mediated signal transduction pathway, CRE-GFP 293 cells in 6-well plates (1 × 10^6/well) were pretreated with kinase inhibitor H-89 (LC Laboratories, Woburn, MA, USA), KN-62 (Cayman Chemical, Ann Arbor, MI, USA), U0126 (LC Laboratories), or wortmannin (LC Laboratories) (10 μM) for 4 h before forskolin or LM-021 (10 μM) addition for 5 h. GFP fluorescence/protein and total/phosphorylated PKA, CaMKII, ERK, PI3K, and CREB levels were examined. In addition, Aβ-GFP or ∆K280 tauRD-DsRed SH-SY5Y cells were treated with retinoic acid (10 μM) on day 1, followed by the addition of LM-021 (5 or 10 μM) and doxycycline (5 or 2 μg/ml) on day 2, as described. Kinase inhibitors (10 μM) were added on day 6. On day 8, the cells were collected for protein expression analysis of BDNF, BCL2 (BCL2 apoptosis regulator), and BAX (BCL2 associated X, apoptosis regulator), and total/phosphorylated PKA, CaMKII, ERK, PI3K, and CREB. Also, cells were stained with DAPI and assessed for neurite outgrowth as described above.
(§2) Total proteins from CRE-GFP 293 and Aβ-GFP, ∆K280 tauRD-DsRed SH-SY5Y cells were extracted using lysis buffer (50 mM Tris-HCl (pH 8.0), 150 mM NaCl, 1 mM EDTA (pH 8.0), 1 mM EGTA (pH 8.0), 0.1% SDS, 0.5% sodium deoxycholate, 1% Triton X-100) containing phosphatase and protease inhibitor cocktails (Sigma-Aldrich). Protein concentrations were measured using a protein assay kit (Bio-Rad, Hercules, CA, USA), and 20 μg of proteins was separated with 10% SDS-PAGE and blotted onto polyvinylidene difluoride (PVDF) membranes (Sigma-Aldrich). After blocking, the membrane blot was incubated with primary antibody against GFP (1 : 500; Santa Cruz Biotechnology, Santa Cruz, CA, USA), PKA (1 : 1000; R&D Systems, Minneapolis, MN, USA), p-PKA (T197) (1 : 1000; Cell Signaling, Danvers, MA, USA), ERK (1 : 500; Cell Signaling), p-ERK (T202/Y204) (1 : 500; Cell Signaling), CaMKII (1 : 1000; Santa Cruz Biotechnology), p-CaMKII (T286) (1 : 1000; Cell Signaling), CREB (1 : 1000; Santa Cruz Biotechnology), p-CREB (S133) (1 : 1000; Millipore, Billerica, MA, USA), BDNF (1 : 500; Santa Cruz Biotechnology), BCL2 (1 : 500; BioVision), BAX (1 : 500; BioVision), GAPDH (glyceraldehyde-3-phosphate dehydrogenase, as a loading control) (1 : 1000; MDBio, Taipei, Taiwan), or β-tubulin (1 : 1000, Sigma-Aldrich, as a loading control). The immune complexes were visualized using horseradish peroxidase-conjugated goat anti-mouse or goat anti-rabbit IgG antibody (1 : 5000, GeneTex, Irvine, CA, USA) and a chemiluminescent substrate (Millipore).

[2] = system: Aβ-GFP SH-SY5Y cells; assay: High content analysis of neurite outgrowth in Aβ-GFP cells; conditions: inhibitor 10 μM on day 6, LM-021 5 μM
Description: (§3) On day 1, Aβ-GFP or ∆K280 tauRD-DsRed SH-SY5Y cells were plated into 24-well plates (6 × 10^4/well) followed by addition of retinoic acid. On day 2, cells were treated with coumarin-chalcone derivatives (5 or 10 μM) and with doxycycline (5 or 2 μg/ml) to induce the expression of Aβ-GFP or ∆K280 tauRD-DsRed. On day 8, 4% paraformaldehyde, 0.1% Triton X-100, and 3% BSA were used to fix, permeabilize, and block cells, respectively. Subsequently, the cells were stained with TUBB3 (neuronal class III β-tubulin) primary antibody (1 : 1000; Covance, Princeton, NJ, USA) at 4°C overnight. Goat anti-rabbit Alexa Fluor 555 secondary antibody (1 : 1000; Thermo Fisher Scientific) was then added, followed by a 3 h incubation at room temperature. Following staining nuclei with 4′,-6-diamidino-2-phenylindole (DAPI) (0.1 μg/ml; Sigma-Aldrich), the neurons were imaged by using the HCA system and analysed by using the Neurite Outgrowth Application Module (MetaXpress; Molecular Devices).
as §1

[3] = system: ∆K280 tauRD-DsRed SH-SY5Y cells; assay: Western blot in ΔK280 tauRD-DsRed SH-SY5Y cells; conditions: inhibitor 10 μM on day 6, LM-021 10 μM
Description: as §1, §2

[4] = system: CRE-GFP 293 cells; assay: Western blot in CRE-GFP 293 cells; conditions: inhibitor 10 μM, LM-021 10 μM, without Ca2+ ionophore, immunoblot
Description: as §1
Total proteins from CRE-GFP 293 and Aβ-GFP, ∆K280 tauRD-DsRed SH-SY5Y cells were extracted using lysis buffer (50 mM Tris-HCl (pH 8.0), 150 mM NaCl, 1 mM EDTA (pH 8.0), 1 mM EGTA (pH 8.0), 0.1% SDS, 0.5% sodium deoxycholate, 1% Triton X-100) containing phosphatase and protease inhibitor cocktails (Sigma-Aldrich). Protein concentrations were measured using a protein assay kit (Bio-Rad, Hercules, CA, USA), and 20 μg of proteins was separated with 10% SDS-PAGE and blotted onto polyvinylidene difluoride (PVDF) membranes (Sigma-Aldrich). […]

[5] = system: CRE-GFP 293 cells; assay: CRE-GFP 293 reporter cell assay (flow cytometry); conditions: inhibitor 10 μM 4 h before LM-021 10 μM, presence or absence of Ca2+ ionophore
Excerpt: Using the pCRE-MetLuc2-Reporter plasmid (Clontech, Mountain View, CA, USA) as a template, the DNA fragment containing the cAMP response element (CRE) motifs and TATA-like promoter (PTAL) flanked by MluI and AgeI restriction sites was amplified by PCR using sense ([…], MluI site underlined) and antisense ([…], AgeI site underlined) primers. The amplified CRE-PTAL promoter fragment was cloned into pGEM-T Easy (Promega, Madison, WI, USA) and sequenced. The CRE-PTAL-containing MluI/AgeI fragment and GFP-containing AgeI/NotI fragment (from pEGFP-N1; Clontech) were subcloned into MluI- and NotI-digested pcDNA5/FRT/TO (Novagen, Madison, WI, USA). The resulting construct with CRE-PTAL-driving GFP was used to establish 293 GFP reporter cells by targeting insertion into Flp-In-293 cells according to the supplier's instructions (Invitrogen). The cells were grown in a medium containing 5 μg/ml blasticidin and 100 μg/ml hygromycin.
On day 1, CRE-GFP 293 cells were seeded into 48-well plates (5 × 10^4/well). After 24 h, cells were treated with Ca^2+ ionophore (2 μM) (Sigma-Aldrich) for 0–24 h. Cell viability was measured using 3,(4,5-dimethylthiazol-2-yl)-2,5-diphenyltetrazolium bromide (MTT) assay (Sigma-Aldrich). The absorbance of the insoluble purple formazan dye was quantified at 570 nm on a μQuant microplate spectrophotometer (Bio-Tek). In addition, the cells were treated with the Ca^2+ ionophore A23187 (0.5–10 μM) (Sigma-Aldrich) for 5 h, followed by analysis of GFP fluorescence by flow cytometry (Becton–Dickinson, Franklin Lakes, NJ, USA) with excitation/emission wavelengths at 488/507 nm. To monitor CREB activation, cells were treated with forskolin or coumarin-chalcone derivatives (5–10 μM) in the presence or absence of Ca^2+ ionophore (2 μM) for 5 h, and GFP fluorescence was analysed.
as §1

[6] = system: ∆K280 tauRD-DsRed SH-SY5Y cells; assay: High content analysis of neurite outgrowth in ΔK280 tauRD-DsRed cells; conditions: inhibitor 10 μM on day 6, LM-021 10 μM
Description: as §3, §1

Row | SMILES | Effect of kinase inhibitor on LM-021-upregulated kinase phosphorylation [1] | Effect of kinase inhibitor on LM-021 increase in p-CREB, pro-BDNF, m-BDNF, and BCL2 [1] | Effect of kinase inhibitor on LM-021-improved neurite length, processes, and branches [2] | Effect of kinase inhibitor on LM-021-upregulated kinase phosphorylation [3] | Effect of kinase inhibitor on LM-021 upregulation of p-CREB, pro-BDNF, m-BDNF, and BCL2 [3] | Effect of kinase inhibitor on increased p-CREB and GFP protein levels [4] | Effect of kinase inhibitor on LM-021-activated GFP levels [5] | Effect of kinase inhibitor on LM-021-ameliorated neurite length and branch length [6]
1 | CN([C@@H](Cc1ccc(OS(=O)(=O)c2cccc3cnccc23)cc1)C(=O)N1CCN(c2ccccc2)CC1)S(=O)(=O)c1cccc2cnccc12 [KN-62] | mitigated the upregulation of p-CaMKII; also recorded: normalized p-ERK | attenuated the increase | counteracted these improvements | diminished the increase of p-CaMKII | attenuated the upregulation | significantly reduced | attenuated the GFP levels | reversed these effects
2 | N#CC(=C(/N)Sc1ccccc1N)/C(C#N)=C(/N)Sc1ccccc1N [U0126] | normalized p-ERK | attenuated the increase | counteracted these improvements | attenuated the rescue of p-ERK | attenuated the upregulation | significantly reduced | attenuated the GFP levels | reversed these effects
